In PMC7402526, “An in vitro quantitative systems pharmacology approach for deconvolving mechanisms of drug-induced, multilineage cytopenias” (PLoS Computational Biology, 2020):

Columns and labels:
[1] = system: monocyte progenitors (monocyte prog); assay: MLTA, MonoP: concentration-response and QSP model fit; assay type: cell-based, human
In short: (§1)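 Parameters come from fitting an Emax-based QSP model, with L1 regularization and Emax ranging 0–2, to vehicle-normalized, bead-corrected flow cytometry counts. Counts came from human bone marrow CD34+ cells treated from day 0 through a 6-day multi-lineage cytokine culture in SFEM II, using 2–7 donors per drug.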

[2] = system: B cells (B-lin); assay: MLTA, B-lin: concentration-response and QSP model fit; assay type: cell-based, human; details: Homo sapiens, B-cell, 144 h
In short: as §1

[3] = system: total dead cells (totalDeadCells); assay: MLTA, total dead cells concentration-response; assay type: cell-based; details: Homo sapiens, 144 h, 6 days, normalized to vehicle control, read-out: total_dead normalized cell count
In short: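 Freeze-thawed primary human bone marrow CD34+ cells in SFEM II with cytokine cocktail, drug added day 0, 6 days at 37°C, 5% CO2. Live/dead counts by 17-parameter flow cytometry with DAPI exclusion, bead-normalized, volume-corrected to cells/mL. Normalized per donor to mean of six vehicle wells; 2–7 donors pooled.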

[4] = system: granulocyte-macrophage progenitor (GMPs); assay: MLTA, GMPs: concentration-response and QSP model fit; assay type: cell-based, human; details: Homo sapiens, 144 h, 6 days, normalized to vehicle control, read-out: GMPs normalized cell count
In short: as §1

[5] = system: granulocytes (Gran-lin); assay: MLTA, Gran: concentration-response and QSP model fit; assay type: cell-based, human
In short: as §1

[6] = system: monocytes (monocyte-lin); assay: MLTA, Mono: concentration-response and QSP model fit; assay type: cell-based, human; details: Homo sapiens, Monocyte, 144 h
In short: as §1

[7] = system: lymphocyte progenitors (LymP); assay: MLTA, LymP: concentration-response and QSP model fit; assay type: cell-based, human; details: Homo sapiens, Lymphocyte, 144 h
In short: as §1

[8] = system: human bone marrow-derived CD34+ cells differentiated into multiple hematopoietic lineages; assay: MLTA, overall effects across hematopoietic lineages; assay type: cell-based; details: QSP model fit; EmaxT > 1.0 = cell-killing
Experimental: A custom optimized cytokine cocktail was developed using commercially available cytokines (Peprotech, New Jersey) to facilitate simultaneous multi-lineage differentiation and self-renewal of freeze-thawed primary human bone marrow-derived CD34+ cells in SFEM II media (cells and media from StemCell Technologies, Vancouver). Cultures were carried out in ultra-low attachment 96-well plates (Corning, New York) with test article added on day 0 and cultured at 37°C, 85% relative humidity, and 5% CO2 for six days before interrogating drug impact via 17-parameter flow cytometry.
The flow cytometry panel used to define hematopoietic subsets was composed of CD34-PECy7, CD90-PECY5, CD38-AF488, CD371-PE, CD45Ra-BV421, CD14-BV605, CD42b-AF647, CD10-PEDazzle594, CD235a-PerCPCy5.5 (BioLegend, California), CD15-BUV395, CD41a-APCH7, CD71-BV786 (BD Biosciences, California), and DAPI for dead cell exclusion (ThermoFisher, California). In short, Day 6 cells were harvested, FcR-blocked (FcR binding inhibitor, ThermoFisher), surface-stained, then analyzed in a buffer containing TruCount Control Beads using a BD LSR Fortessa SORP fitted with a high-throughput sampler (BD Biosciences, California). Data was analyzed in Diva 6.0.2 and exported to CSV where after all cell data was transformed to cell per mL then normalized on a per-donor basis to untreated control wells to determine drug impact.
Donor material was collected and cultured as described above. The number of replicate donor samples per drug ranged from 2–7 and varied per drug (S1 Table). Drug treatment was added at time 0 and cells were maintained in culture for 6 days. Concentrations tested for each drug compound are contained in S1 Table. Concentrations were selected to span a range that is clinically useful. Following treatment, cell populations were measured using flow cytometry. We extracted cell counts from flow cytometry data, normalized to bead counts, and corrected for well volume.
Each well was normalized to the average of six vehicle control wells. For drugs that were tested across multiple runs of the assay, vehicle-normalized donor data were pooled, and we used the average of these pooled data for further modeling. Normalized data used as model inputs are included in S1 Table.
We implemented drug effects using an Emax model for the drug’s effect on each cell type. The 13 maximum effect parameters (EmaxT,C) are unitless and can vary between 0 and 2 and where a subscript, C, represents one of the previously described 13 cell types. We adapted a traditional Emax model using the equations below. We interpreted EmaxT values less than or equal to one as anti-proliferative, and EmaxT values greater than one as indicating a cell-killing mechanism in addition to anti-proliferation. The relationships for these effects are included in the model using the following equations. Eq 2 describes the drug anti-proliferative effect in the net proliferation rate for a given cell type. Eq 3 describes the cell-killing EmaxCK effect.

[9] = system: MK cells (MK-lin); assay: MLTA, MK: concentration-response and QSP model fit; assay type: cell-based, human; details: Homo sapiens, 144 h
In short: as §1

[10] = cell-killing component, max(0, EmaxT-1)
[11] = QSP model fit of 6-day MLTA data

## CC(=O)O[C@@]12CO[C@@H]1C[C@H](O)[C@@]1(C)C(=O)[C@H](O)C3=C(C)[C@@H](OC(=O)[C@H](O)[C@@H](NC(=O)OC(C)(C)C)c4ccccc4)C[C@@](O)([C@@H](OC(=O)c4ccccc4)[C@H]21)C3(C)C [docetaxel]
[1]; Homo sapiens, Monocyte, 144 h, QSP model fit of 6-day MLTA data, read-out: EC50MonoP
  EC50: 7.88 nM
[1]; Homo sapiens, Monocyte, 144 h, dose 0.2 nM, 6 days, normalized to vehicle control, read-out: MonoPs normalized cell count
  activity at 0.0002 µM: 110%
[1]; Homo sapiens, Monocyte, 144 h, dose 1 nM, 6 days, normalized to vehicle control, read-out: MonoPs normalized cell count
  activity at 0.001 µM: 107%
[1]; Homo sapiens, Monocyte, 144 h, dose 5 nM, 6 days, normalized to vehicle control, read-out: MonoPs normalized cell count
  activity at 0.005 µM: 7.72%
[1]; Homo sapiens, Monocyte, 144 h, dose 25 nM, 6 days, normalized to vehicle control, read-out: MonoPs normalized cell count
  activity at 0.025 µM: 0.204%
[1]; Homo sapiens, Monocyte, 144 h, dose 100 nM, 6 days, normalized to vehicle control, read-out: MonoPs normalized cell count
  activity at 0.1 µM: 0.162%
[1]; Homo sapiens, Monocyte, 144 h, dose 500 nM, 6 days, normalized to vehicle control, read-out: MonoPs normalized cell count
  activity at 0.5 µM: 0.302%
[1]; Homo sapiens, Monocyte, 144 h, dose 2500 nM, 6 days, normalized to vehicle control, read-out: MonoPs normalized cell count
  activity at 2.5 µM: 0.319%
[1]; Homo sapiens, Monocyte, 144 h, parameter from QSP model fitting, read-out: Emax_drug_MonoP
  Emax: 146%
[1]; [10]
  EmaxCK,MonoP: 0.459 day⁻¹
[2]; [11]
  EC50: 10.4 nM
[2]; dose 0.2 nM, 6 days, normalized to vehicle control, read-out: B-lin normalized cell count
  activity at 0.0002 µM: 89%
[2]; dose 1 nM, 6 days, normalized to vehicle control, read-out: B-lin normalized cell count
  activity at 0.001 µM: 94.8%
[2]; dose 5 nM, 6 days, normalized to vehicle control, read-out: B-lin normalized cell count
  activity at 0.005 µM: 3.47%
[2]; dose 25 nM, 6 days, normalized to vehicle control, read-out: B-lin normalized cell count
  activity at 0.025 µM: 0.169%
[2]; dose 100 nM, 6 days, normalized to vehicle control, read-out: B-lin normalized cell count
  activity at 0.1 µM: 1.5%
[2]; dose 500 nM, 6 days, normalized to vehicle control, read-out: B-lin normalized cell count
  activity at 0.5 µM: 1.33%
[2]; dose 2500 nM, 6 days, normalized to vehicle control, read-out: B-lin normalized cell count
  activity at 2.5 µM: 0.24%
[2]; parameter from QSP model fitting, read-out: Emax_drug_B
  Emax: 102%
[3]; dose 0.2 nM
  activity at 0.0002 µM: 104%
[3]; dose 1 nM
  activity at 0.001 µM: 107%
[3]; dose 5 nM
  activity at 0.005 µM: 113%
[3]; dose 25 nM
  activity at 0.025 µM: 45.7%
[3]; dose 100 nM
  activity at 0.1 µM: 46.1%
[3]; dose 500 nM
  activity at 0.5 µM: 41.6%
[3]; dose 2500 nM
  activity at 2.5 µM: 48.4%
[4]; dose 0.2 nM
  activity at 0.0002 µM: 103%
[4]; dose 1 nM
  activity at 0.001 µM: 126%
[4]; dose 5 nM
  activity at 0.005 µM: 15.2%
[4]; dose 25 nM
  activity at 0.025 µM: 0.367%
[4]; dose 100 nM
  activity at 0.1 µM: 0.162%
[4]; dose 500 nM
  activity at 0.5 µM: 0.693%
[4]; dose 2500 nM
  activity at 2.5 µM: 0.207%
[5]; Homo sapiens, 144 h, QSP model fit of 6-day MLTA data
  EC50: 7.91 nM
[5]; Homo sapiens, 144 h, dose 0.2 nM, 6 days, normalized to vehicle control, read-out: Gran normalized cell count
  activity at 0.0002 µM: 99.7%
[5]; Homo sapiens, 144 h, dose 1 nM, 6 days, normalized to vehicle control, read-out: Gran normalized cell count
  activity at 0.001 µM: 112%
[5]; Homo sapiens, 144 h, dose 5 nM, 6 days, normalized to vehicle control, read-out: Gran normalized cell count
  activity at 0.005 µM: 2.09%
[5]; Homo sapiens, 144 h, dose 25 nM, 6 days, normalized to vehicle control, read-out: Gran normalized cell count
  activity at 0.025 µM: 0.0343%
[5]; Homo sapiens, 144 h, dose 100 nM, 6 days, normalized to vehicle control, read-out: Gran normalized cell count
  activity at 0.1 µM: 0.0437%
[5]; Homo sapiens, 144 h, dose 500 nM, 6 days, normalized to vehicle control, read-out: Gran normalized cell count
  activity at 0.5 µM: 0.0563%
[5]; Homo sapiens, 144 h, dose 2500 nM, 6 days, normalized to vehicle control, read-out: Gran normalized cell count
  activity at 2.5 µM: 0.0425%
[5]; Homo sapiens, 144 h, parameter from QSP model fitting, read-out: Emax_drug_Gran
  Emax: 276%
[5]; [10]
  EmaxCK,Gran: 1.762 day⁻¹
[6]; [11]
  EC50: 9.03 nM
[6]; dose 0.2 nM, 6 days, normalized to vehicle control, read-out: Mon normalized cell count
  activity at 0.0002 µM: 103%
[6]; dose 1 nM, 6 days, normalized to vehicle control, read-out: Mon normalized cell count
  activity at 0.001 µM: 106%
[6]; dose 5 nM, 6 days, normalized to vehicle control, read-out: Mon normalized cell count
  activity at 0.005 µM: 2.6%
[6]; dose 25 nM, 6 days, normalized to vehicle control, read-out: Mon normalized cell count
  activity at 0.025 µM: 1.23%
[6]; dose 100 nM, 6 days, normalized to vehicle control, read-out: Mon normalized cell count
  activity at 0.1 µM: 1.06%
[6]; dose 500 nM, 6 days, normalized to vehicle control, read-out: Mon normalized cell count
  activity at 0.5 µM: 2.03%
[6]; dose 2500 nM, 6 days, normalized to vehicle control, read-out: Mon normalized cell count
  activity at 2.5 µM: 1.39%
[6]; parameter from QSP model fitting, read-out: Emax_drug_Mono
  Emax: 19.8%
[7]; dose 0.2 nM, 6 days, normalized to vehicle control, read-out: LymP normalized cell count
  activity at 0.0002 µM: 96.4%
[7]; dose 1 nM, 6 days, normalized to vehicle control, read-out: LymP normalized cell count
  activity at 0.001 µM: 131%
[7]; dose 5 nM, 6 days, normalized to vehicle control, read-out: LymP normalized cell count
  activity at 0.005 µM: 24.3%
[7]; dose 25 nM, 6 days, normalized to vehicle control, read-out: LymP normalized cell count
  activity at 0.025 µM: 6.02%
[7]; dose 100 nM, 6 days, normalized to vehicle control, read-out: LymP normalized cell count
  activity at 0.1 µM: 2.7%
[7]; dose 500 nM, 6 days, normalized to vehicle control, read-out: LymP normalized cell count
  activity at 0.5 µM: 7.71%
[7]; dose 2500 nM, 6 days, normalized to vehicle control, read-out: LymP normalized cell count
  activity at 2.5 µM: 6.19%
[7]; parameter from QSP model fitting, read-out: Emax_drug_LymP
  Emax: 0.16%
[8]
  EmaxT effects across cell types (overall statement): > 1.0
[9]; [11]
  EC50: 7.79 nM
[9]; dose 0.2 nM, 6 days, normalized to vehicle control, read-out: MK normalized cell count
  activity at 0.0002 µM: 94.7%
[9]; dose 1 nM, 6 days, normalized to vehicle control, read-out: MK normalized cell count
  activity at 0.001 µM: 109%
[9]; dose 5 nM, 6 days, normalized to vehicle control, read-out: MK normalized cell count
  activity at 0.005 µM: 14.4%
[9]; dose 25 nM, 6 days, normalized to vehicle control, read-out: MK normalized cell count
  activity at 0.025 µM: 1.1%
[9]; dose 100 nM, 6 days, normalized to vehicle control, read-out: MK normalized cell count
  activity at 0.1 µM: 0.719%
[9]; dose 500 nM, 6 days, normalized to vehicle control, read-out: MK normalized cell count
  activity at 0.5 µM: 0.951%
[9]; dose 2500 nM, 6 days, normalized to vehicle control, read-out: MK normalized cell count
  activity at 2.5 µM: 1.05%
[9]; parameter from QSP model fitting, read-out: Emax_drug_MK
  Emax: 12.6%
